Assay results published in patent US8552031B2, “3-ethylidenehydrazino substituted heterocyclic compounds as thrombopoietin receptor activators” (Nissan Chemical Industries, Ltd., priority 2004, dated 2013).

The compounds below were run against T1, human TPO receptor (c-mp1) (Homo sapiens, UniProt P40238) (assay: Stimulation of proliferation of TPO-dependent cell line UT7/EPO-mpl (WST-8)). Details: FIG. 1; 4 days incubation, WST-8, absorbance at 450 nm.
T1 construct: expressed in transfected cells
T1 sequence (P40238 26-635): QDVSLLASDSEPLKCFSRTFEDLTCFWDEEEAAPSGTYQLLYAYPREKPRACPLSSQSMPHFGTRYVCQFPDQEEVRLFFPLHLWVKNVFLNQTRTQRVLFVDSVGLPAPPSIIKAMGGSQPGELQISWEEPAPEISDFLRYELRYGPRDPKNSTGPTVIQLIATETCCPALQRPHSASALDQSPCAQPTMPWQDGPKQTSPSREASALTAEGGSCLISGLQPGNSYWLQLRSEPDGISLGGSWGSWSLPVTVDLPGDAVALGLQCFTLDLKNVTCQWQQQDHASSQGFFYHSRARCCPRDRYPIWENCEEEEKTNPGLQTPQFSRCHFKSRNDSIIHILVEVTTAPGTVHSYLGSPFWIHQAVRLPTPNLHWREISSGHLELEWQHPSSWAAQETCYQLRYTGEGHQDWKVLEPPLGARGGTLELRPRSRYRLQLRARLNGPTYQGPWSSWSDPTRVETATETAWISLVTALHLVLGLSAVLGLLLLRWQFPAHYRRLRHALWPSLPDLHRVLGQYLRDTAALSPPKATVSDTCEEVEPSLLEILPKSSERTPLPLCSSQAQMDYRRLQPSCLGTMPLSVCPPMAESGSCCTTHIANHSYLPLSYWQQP
Format: cell-based
Procedure: The reactivity of the compound of Synthetic Example 4 of the present invention with thrombopoietin (TPO) receptor was assayed using a human leukemic cell line, UT7/EPO-mpl.
(§1) UT7/EPO-mpl is a stable transformed cell line obtained by introducing into human leukemic cell line UT7/EPO a vector that induces expression of human TPO receptor (c-mp1) under control of cytomegalovirus immediate-early promoter by the method of Takatoku et al. (J. Biol. Chem., 272:7259-7263 (1997)). […] These two cell lines were subcultured in Iscove's modified Dulbecco's medium (IMDM; GIBCO) containing 10% fetal bovine serum (FBS; Thermo Electron or BioWest) using a CO2 incubator (5% CO2, 37° C.).
(§2) The subcultured cells described above were washed twice with phosphate buffered saline (PBS) and suspended in IMDM containing 10% FBS at a cell density of 6×10^4 cells/ml. The cell suspension was transferred to a 96-well tissue culture plate (CORNING) in 100-μl aliquots. Then either TPO (Pepro Tech EC) or the compound of Synthetic Example 4 dissolved in dimethyl sulfoxide (DMSO) was diluted 83-fold with IMDM containing 10% FBS and added to the aforementioned cell suspension in 20-μl aliquots. The cell suspension was incubated in a CO2 incubator (5% CO2, 37° C.) for 4 days. Cell proliferation was assayed using WST-8 reagent (Kishida Chemical Co., Ltd.) according to instructions by the manufacturer. A 10-μl aliquot of 5 mM WST-8 reagent solution was added to each well of the tissue culture plate, and the plate was incubated at 37° C. for 4 h. The formazan pigment generated was detected by measuring the absorbance at 450 nm with a 96-well microplate reader (Nihon Molecular Devices, Spectramax 190).
The compounds of the following Synthetic Examples were tested according to the method of Assay Example 1 to determine the concentration of each compound that yields a growth rate corresponding to 50% of the growth of human leukemic cell line UT-7/EPO-mpl observed in the presence of 10 ng/ml TPO (EC50).

Compound	proliferation of TPO-responsive UT7/EPO-mpl cells
CC(=NNC(=S)NCC(=O)O)c1csc(-c2ccc(Cl)c(Cl)c2)c1O [Synthetic Example 4, 2-[(2-{1-[5-(3,4-dichlorophenyl)-4-hydroxythiophen-3-yl]-etylidene}-hydrazinocarbonothioyl)amino]acetic acid]	stimulated by the compound of Synthetic Example 4 in a concentration-dependent manner

Same assay, conditions: concentration that yields a growth rate corresponding to 50% of the growth of UT-7/EPO-mpl observed in the presence of 10 ng/ml TPO; 4 days incubation

EC50 [ng/mL]	Compound
5.6	CC(=NNC(=S)NCC(=O)O)c1csc(-c2ccc(Cl)c(Cl)c2)c1O [Synthetic Example 4, 2-[(2-{1-[5-(3,4-dichlorophenyl)-4-hydroxythiophen-3-yl]-etylidene}-hydrazinocarbonothioyl)amino]acetic acid]

Same assay, conditions: concentration that yields a growth rate corresponding to 50% of the growth of UT-7/EPO-mpl observed in the presence of 10 ng/ml TPO; 4 days incubation; read-out: EC50 (converted)

EC50 [nM]	Compound
4.79	CC(=NNC(=S)N1CCC(C(=O)O)CC1)c1csc(-c2ccc(Cl)cc2)c1O [Synthetic Example 12, 1-{1-[5-(4-chlorophenyl)-4-hydroxy-thiophen-3-yl]-ethilidene-hydrazinothiocarbonyl}-piperidine-4-carboxylic acid]
6.02	CC(=NNC(=S)N1CCC(C(=O)O)CC1)c1csc(-c2ccc(C)c(C)c2)c1O [Synthetic Example 13, 1-{1-[5-(3,4-dimethylphenyl)-4-hydroxythiophen-3-yl]-ethylidene-hydrazinothiocarbonyl}-piperidine-4-carboxylic acid]
5.66	CC(=NNC(=S)N1CCC(C(=O)O)CC1)c1csc(-c2ccc(C(C)(C)C)cc2)c1O [Synthetic Example 14, 1-{1-[5-(4-t-butylphenyl)-4-hydroxy-thiophen-3-yl]-ethylidene-hydrazinothiocarbonyl}-piperidine-4-carboxylic acid]
5.94	CC(=NNC(=S)N1CCC(C(=O)O)CC1)c1csc(-c2cccc(Cl)c2)c1O [Synthetic Example 15, 1-{1-[5-(3-chlorophenyl)-4-hydroxythiophen-3-yl]-ethylidene-hydrazinothiocarbonyl}-piperidine-4-carboxylic acid]
8.09	CC(=NNC(=S)N1CCC(C(=O)O)CC1)c1nn(C)c(-c2ccc(C(F)(F)F)cc2)c1O [Synthetic Example 16, 1-{1-[4-hydroxy-1-methyl-5-(4-trifluoromethylphenyl)-1H-pyrazol-3-yl]-ethylidene-hydrazinothiocarbonyl}-piperidine-4-carboxylic acid]
16.6	CC(=NNC(=S)N1CCC(C(=O)O)CC1)c1nn(C)c(-c2ccc(Cl)c(Cl)c2)c1O [Synthetic Example 17, 1-{1-[5-(3,4-dichlorophenyl)-4-hydroxy-1-methyl-1H-pyrazol-3-yl]-ethylidene-hydrazinothiocarbonyl}-piperidine-4-carboxylic acid]
46.6	CC(=NNC(=S)N1CCCC(C(=O)O)C1)c1csc(-c2ccc(Cl)c(Cl)c2)c1O (centres unmarked) [Synthetic Example 18, 1-{1-[5-(3,4-dichlorophenyl)-4-hydroxythiophen-3-yl]-ethylidene-hydrazinothiocarbonyl}-piperidine-3-carboxylic acid]
49.3	CCN(CC)C(=O)C1CCN(C(=S)NN=C(C)c2csc(-c3ccc(Cl)c(Cl)c3)c2O)CC1 [Synthetic Example 19, 1-{1-[5-(3,4-dichlorophenyl)-4-hydroxythiophen-3-yl]-ethylidene-hydrazinothiocarbonyl}-piperidine-4-carboxylic acid diethylamide]
6.98	CC(=NNC(=S)N1CCC(O)CC1)c1csc(-c2ccc(Cl)c(Cl)c2)c1O [Synthetic Example 20, 1-{1-[5-(3,4-dichlorophenyl)-4-hydroxythiophen-3-yl]-ethylidene-hydrazinothiocarbonyl}-piperidin-4-ol]
51.8	CC(=NNC(=S)N1CCCC(O)C1)c1csc(-c2ccc(Cl)c(Cl)c2)c1O (centres unmarked) [Synthetic Example 21, 1-{1-[5-(3,4-dichlorophenyl)-4-hydroxythiophen-3-yl]-ethylidene-hydrazinothiocarbonyl}-piperidin-3-ol]
45.8	CC(=NNC(=S)N1CCC(CO)CC1)c1csc(-c2ccc(Cl)c(Cl)c2)c1O [Synthetic Example 22, 1-{1-[5-(3,4-dichlorophenyl)-4-hydroxythiophen-3-yl]-ethylidene-hydrazinothiocarbonyl}-piperidine-4-methanol]
76.3	COCCCNC(=S)NN=C(C)c1csc(-c2ccc(Cl)c(Cl)c2)c1O [Synthetic Example 23, 1-(2-{1-[5-(3,4-dichlorophenyl)-4-hydroxythiophen-3-yl]-ethylidene}-hydrazinocarbonothioyl)amino-3-methoxypropane]

Continued, compound first:

Compound	EC50 [nM]
COC(=O)C1CCN(C(=S)NN=C(C)c2csc(-c3ccc(Cl)c(Cl)c3)c2O)CC1 [Synthetic Example 1, methyl 1-{1-[5-(3,4-dichlorophenyl)-4-hydroxythiophen-3-yl]-ethylidene-hydrazinothiocarbonyl}-piperidine-4-carboxylate]	63.7
CC(=NNC(=S)N1CCC(C(=O)O)CC1)c1csc(-c2ccc(Cl)c(Cl)c2)c1O [Synthetic Example 2, 1-{1-[5-(3,4-dichlorophenyl)-4-hydroxythiophen-3-yl]-ethylidene-hydrazinothiocarbonyl}-piperidine-4-carboxylic acid]	6.77
COC(=O)CNC(=S)NN=C(C)c1csc(-c2ccc(Cl)c(Cl)c2)c1O [Synthetic Example 3, methyl 2-[(2-{1-[5-(3,4-dichlorophenyl)-4-hydroxythiophen-3-yl]-ethylidene}-hydrazinocarbonothioyl)amino]acetate]	55.5
COC(=O)CCNC(=S)NN=C(C)c1csc(-c2ccc(Cl)c(Cl)c2)c1O [Synthetic Example 5, methyl 3-[(2-{1-[5-(3,4-dichlorophenyl)-4-hydroxythiophen-3-yl]-ethylidene}-hydrazinocarbonothioyl)amino]propionate]	67.2
CC(=NNC(=S)NCCC(=O)O)c1csc(-c2ccc(Cl)c(Cl)c2)c1O [Synthetic Example 6, 3-[(2-{1-[5-(3,4-dichlorophenyl)-4-hydroxythiophen-3-yl]-ethylidene}-hydrazinocarbonothioyl)amino]propionic acid]	32.4
COCCNC(=S)NN=C(C)c1csc(-c2ccc(Cl)c(Cl)c2)c1O [Synthetic Example 7, 1-(2-{1-[5-(3,4-dichlorophenyl)-4-hydroxythiophen-3-yl]-ethylidene}-hydrazinocarbonothioyl)amino-2-methoxyethane]	66.9
COC(=O)C1CCN(C(=S)NN=C(C)c2csc(-c3ccc(Br)cc3)c2O)CC1 [Synthetic Example 8, methyl 1-{1-[5-(4-bromophenyl)-4-hydroxy-thiophen-3-yl]-ethylidene-hydrazinothiocarbonyl}-piperidine-4-carboxylate]	50.4
CC(=NNC(=S)N1CCC(C(=O)O)CC1)c1csc(-c2ccc(Br)cc2)c1O [Synthetic Example 9, 1-{1-[5-(4-bromophenyl)-4-hydroxy-thiophen-3-yl]-ethylidene-hydrazinothiocarbonyl}-piperidin-4-carboxylic acid]	4.77
CC(=NNC(=S)N1CCC(C(=O)O)CC1)c1csc(-c2ccc(C(F)(F)F)cc2)c1O [Synthetic Example 10, 1-{1-[4-hydroxy-5-(4-trifluoromethylphenyl)-thiophen-3-yl]-ethylidene-hydrazinothiocarbonyl}-piperidine-4-carboxylic acid]	5.73
CC(=NNC(=S)N1CCC(C(=O)O)CC1)c1csc(-c2ccc(OC(F)(F)F)cc2)c1O [Synthetic Example 11, 1-{1-[5-(4-trifluoromethoxyphenyl)-4-hydroxythiophen-3-yl]-ethylidene-hydrazinothiocarbonyl}-piperidine-4-carboxylic acid]	5.95

Same assay, conditions: concluded from UT7/EPO-mpl versus UT7/EPO proliferation (FIG. 1, FIG. 2)

Compound	selectivity of action on the TPO receptor
CC(=NNC(=S)NCC(=O)O)c1csc(-c2ccc(Cl)c(Cl)c2)c1O [Synthetic Example 4, 2-[(2-{1-[5-(3,4-dichlorophenyl)-4-hydroxythiophen-3-yl]-etylidene}-hydrazinocarbonothioyl)amino]acetic acid]	acts on the TPO receptor selectively as an activator

What follows are compounds tested on UT7/EPO cells (assay: Proliferation of mother cell line UT7/EPO expressing no TPO receptor (WST-8)). Details: FIG. 2, 4 days incubation.
Format: cell-based, human
Procedure: as §1
as §2, with “A 10-μl aliquot of 5 mM WST-8 reagent solution was added to each well of the tissue culture plate, and the plate was incubated at 37° C. for 4 h.” left out

Compound	effect on proliferation of UT7/EPO, the mother cell line
CC(=NNC(=S)NCC(=O)O)c1csc(-c2ccc(Cl)c(Cl)c2)c1O [Synthetic Example 4, 2-[(2-{1-[5-(3,4-dichlorophenyl)-4-hydroxythiophen-3-yl]-etylidene}-hydrazinocarbonothioyl)amino]acetic acid]	no effect
